According to US20250098673A1, “COMPOSITIONS, MEANS AND METHODS FOR A NOVEL INSECT REPELLENT” (priority 2019, published 2025):

How the values were obtained:
[1] = system: Culex quinquefasciatus; assay: Arm-in-cage mosquito repellency test on human subjects (Protection Time); format: in vivo; conditions: mean of 5 subjects; Sano data obtained at a different time (historical comparison)
Description: In an embodiment of this invention, the insect repellent effect of a 20% DHA solution was studied. These studies were carried out at Poseidon Sciences Insect Control Laboratory (Miagao, Iloilo, Philippines), a breeding facility for C. quinquefasciatus, for research and development. The insect repellency of a DHA solution, comprising 20% DHA dissolved in a 30% ethanol aqueous solution, was compared to that of a Placebo solution, comprising 30% ethanol in water, as a negative control solution. As a positive control, the repellency of DHA was also compared to that of a commercial Sano insect repellent, a plant based repellent, using a composition of 20% of citrepel 75 dissolved in water. The placebo and the 20% DHA solution were kept in a refrigerator until the day of use. The samples were removed from the refrigerator and kept at room temperature for 3 hours before the tests were undertaken.
The above-mentioned solutions were then tested on a total of 10 subjects (age 19 to 44 comprising a total of 6 women and 4 men), all in good health. Each subject had signed an Informed Consent Form. This study had been approved by Poseidon Sciences IRB (Institutional Review Board). […]
Following application of the tested solution to the arm of the subject, testing was carried out as follows: a research scientist recorded the time of insertion of the arm into the cage and observed mosquito landing. […]

[2] = system: Whitefly (Bemisia tabaci); assay: Study 1: pest control experiment in cauliflower compared to Mospilan; format: in vivo
Description: Whitefly (Bemisia tabaci), is a major pest, in many crops around the world. These pests are carriers of several virus diseases and are damaging the leaves and fruit with scratches and punch-and-suck activity. Furthermore, in cauliflower, excreting honeydew on the leaves and fruit, causes to mold development, which can disqualify the products for the market.
DHA was sprayed in two doses on cauliflower, for checking the effect on Whiteflies. These treatments were tested vs. a standard treatment (Mospilan) and a control treatment (not spraying): • DHA, 2.5% (aqueous solution) • DHA, 5% (aqueous solution) • Mospilan (Acetamiprid 200 g/L), 500 ml per hectare • Control (water spraying)
The experiment was implemented with 4 replicates for each treatment (randomly spread). Each replicate was 12 m long and 2 m width. Spraying volume was 40 L/Dunam. The solution for spraying was in a volume of 4 L.
Counting and statistics: Counting Whiteflies and Thrips was made on 20 leaves, selected randomly in each replicate. Variance analysis was made by Tukey-Kramer (α=0.05). Counting was performed every 7 days.

[3] = cited from earlier work

SMILES: O=C(CO)CO [DHA, Dihydroxyacetone]
- Protection Time, Mean [1]: 45 min
- reduction of mature Whitefly compared to control group ([2]; adults, significant): ~65%
- reduction of young stage Whitefly (trend) ([2]; young stage, trend): ~40%
- carcinogenicity ([3]; SCCS report 2010): non-carcinogenic
- irritancy ([3]; SCCS report 2010): non-irritant
- skin sensitization or photo sensitization ([3]; SCCS report 2010): did not cause skin sensitization or photo sensitization effects
- systemic absorption ([3]; application to skin): not systemically absorbed
- safety of DHA sprays applied to skin ([3]; concentrations of up to 10%, SCCS report 2010): safe to use
